{"source": "paper PMC7377239", "about": "“Cardiovascular Effects of Polychlorinated Biphenyls and Their Major Metabolites” (Environmental Health Perspectives, 2020)", "tested_on": "iCell cardiomyocytes (human iPSC-derived cardiomyocytes)", "assay": "Intracellular Ca2+ flux / beating parameters in iCell cardiomyocytes (FLIPR tetra), 90 min or 24 h", "type": "cell-based", "conditions": "Homo sapiens, Cardiomyocyte, 0.00 µM = 100.00; for activity at 0.1 µM: 0.10 µM", "outline": "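PODs were defined as the concentration crossing one SD of the vehicle-control means (0.5% DMSO) on four-parameter logistic fits of Ca2+ trace metrics (peak height, frequency, peak-spacing CV, decay/rise ratio). Traces came from 100 s, 8 Hz FLIPR reads at 37 °C on calcium-dye-loaded iCell cardiomyocytes. Before reading, cells were treated for 90 min or 24 h from 5× chemical plates spanning 0.05–500 µM, in triplicate.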", "key": {"[1]": {"conditions": "1.5 h, read-out: cm.amp.avg.90min"}, "[2]": {"conditions": "1.5 h, read-out: cm.amp.cv.90min"}, "[3]": {"conditions": "1.5 h, read-out: cm.decay.rise.90min"}, "[4]": {"conditions": "1.5 h, read-out: cm.spacing.cv.90min"}, "[5]": {"conditions": "24 h, read-out: cm.amp.avg.24hrs"}, "[6]": {"conditions": "24 h, read-out: cm.amp.cv.24hrs"}, "[7]": {"conditions": "24 h, read-out: cm.decay.rise.24hrs"}, "[8]": {"conditions": "24 h, read-out: cm.spacing.cv.24hrs"}}, "note": "Structures can show the parent of a compound that is named as a salt. Where two headings read alike, the source gives them in different places."}
{"molecule": "O=S(=O)(O)Oc1ccc(-c2ccc(Cl)cc2)cc1", "note": "[4'-yl PCB 3 sulfate]", "values": [{"measurement": "activity at 0.01 µM", "setting": "[1]", "value": 91, "unit": "%"}, {"measurement": "activity at 0.01 µM", "setting": "[2]", "value": 97, "unit": "%"}, {"measurement": "activity at 0.01 µM", "setting": "1.5 h, read-out: cm.bpm.90min", "value": 100, "unit": "%"}, {"measurement": "activity at 0.01 µM", "setting": "[3]", "value": 100, "unit": "%"}, {"measurement": "activity at 0.01 µM", "setting": "[4]", "value": 138, "unit": "%"}, {"measurement": "activity at 0.1 µM", "setting": "[1]", "value": 100, "unit": "%"}, {"measurement": "activity at 0.1 µM", "setting": "[2]", "value": 92, "unit": "%"}, {"measurement": "activity at 0.1 µM", "setting": "1.5 h, read-out: cm.bpm.90min", "value": 100, "unit": "%"}, {"measurement": "activity at 0.1 µM", "setting": "[3]", "value": 98.1, "unit": "%"}, {"measurement": "activity at 0.1 µM", "setting": "[4]", "value": 107, "unit": "%"}, {"measurement": "activity at 1 µM", "setting": "[1]", "value": 98, "unit": "%"}, {"measurement": "activity at 1 µM", "setting": "[2]", "value": 75.3, "unit": "%"}, {"measurement": "activity at 1 µM", "setting": "1.5 h, read-out: cm.bpm.90min", "value": 100, "unit": "%"}, {"measurement": "activity at 1 µM", "setting": "[3]", "value": 95.6, "unit": "%"}, {"measurement": "activity at 1 µM", "setting": "[4]", "value": 90.9, "unit": "%"}, {"measurement": "activity at 10 µM", "setting": "[1]", "value": 93, "unit": "%"}, {"measurement": "activity at 10 µM", "setting": "[2]", "value": 105, "unit": "%"}, {"measurement": "activity at 10 µM", "setting": "1.5 h, read-out: cm.bpm.90min", "value": 104, "unit": "%"}, {"measurement": "activity at 10 µM", "setting": "[3]", "value": 97.7, "unit": "%"}, {"measurement": "activity at 10 µM", "setting": "[4]", "value": 104, "unit": "%"}, {"measurement": "activity at 100 µM", "setting": "[1]", "value": 0, "unit": "%"}, {"measurement": "activity at 100 µM", "setting": "[2]", "value": 0, "unit": "%"}, {"measurement": "activity at 100 µM", "setting": "1.5 h, read-out: cm.bpm.90min", "value": 0, "unit": "%"}, {"measurement": "activity at 100 µM", "setting": "[3]", "value": 0, "unit": "%"}, {"measurement": "activity at 100 µM", "setting": "[4]", "value": 0, "unit": "%"}, {"measurement": "activity at 0.01 µM", "setting": "[5]", "value": 114, "unit": "%"}, {"measurement": "activity at 0.01 µM", "setting": "[6]", "value": 86.7, "unit": "%"}, {"measurement": "activity at 0.01 µM", "setting": "24 h, read-out: cm.bpm.24hrs", "value": 102, "unit": "%"}, {"measurement": "activity at 0.01 µM", "setting": "[7]", "value": 89.3, "unit": "%"}, {"measurement": "activity at 0.01 µM", "setting": "[8]", "value": 96.8, "unit": "%"}, {"measurement": "activity at 0.1 µM", "setting": "[5]", "value": 46.3, "unit": "%"}, {"measurement": "activity at 0.1 µM", "setting": "[6]", "value": 44.4, "unit": "%"}, {"measurement": "activity at 0.1 µM", "setting": "24 h, read-out: cm.bpm.24hrs", "value": 47.7, "unit": "%"}, {"measurement": "activity at 0.1 µM", "setting": "[7]", "value": 52.8, "unit": "%"}, {"measurement": "activity at 0.1 µM", "setting": "[8]", "value": 48.2, "unit": "%"}, {"measurement": "activity at 1 µM", "setting": "[5]", "value": 68, "unit": "%"}, {"measurement": "activity at 1 µM", "setting": "[6]", "value": 33.8, "unit": "%"}, {"measurement": "activity at 1 µM", "setting": "24 h, read-out: cm.bpm.24hrs", "value": 46.8, "unit": "%"}, {"measurement": "activity at 1 µM", "setting": "[7]", "value": 51.1, "unit": "%"}, {"measurement": "activity at 1 µM", "setting": "[8]", "value": 55.8, "unit": "%"}, {"measurement": "activity at 10 µM", "setting": "[5]", "value": 89.3, "unit": "%"}, {"measurement": "activity at 10 µM", "setting": "[6]", "value": 96.4, "unit": "%"}, {"measurement": "activity at 10 µM", "setting": "24 h, read-out: cm.bpm.24hrs", "value": 101, "unit": "%"}, {"measurement": "activity at 10 µM", "setting": "[7]", "value": 105, "unit": "%"}, {"measurement": "activity at 10 µM", "setting": "[8]", "value": 108, "unit": "%"}, {"measurement": "activity at 100 µM", "setting": "[5]", "value": 112, "unit": "%"}, {"measurement": "activity at 100 µM", "setting": "[6]", "value": 68.8, "unit": "%"}, {"measurement": "activity at 100 µM", "setting": "24 h, read-out: cm.bpm.24hrs", "value": 79.2, "unit": "%"}, {"measurement": "activity at 100 µM", "setting": "[7]", "value": 113, "unit": "%"}, {"measurement": "activity at 100 µM", "setting": "[8]", "value": 103, "unit": "%"}]}
{"molecule": "O=S(=O)(O)Oc1cc(-c2ccccc2)ccc1Cl", "note": "[3-yl PCB 3 sulfate]", "values": [{"measurement": "activity at 0.01 µM", "setting": "[1]", "value": 95.2, "unit": "%"}, {"measurement": "activity at 0.01 µM", "setting": "[2]", "value": 101, "unit": "%"}, {"measurement": "activity at 0.01 µM", "setting": "1.5 h, read-out: cm.bpm.90min", "value": 96.5, "unit": "%"}, {"measurement": "activity at 0.01 µM", "setting": "[3]", "value": 101, "unit": "%"}, {"measurement": "activity at 0.01 µM", "setting": "[4]", "value": 112, "unit": "%"}, {"measurement": "activity at 0.1 µM", "setting": "[1]", "value": 102, "unit": "%"}, {"measurement": "activity at 0.1 µM", "setting": "[2]", "value": 103, "unit": "%"}, {"measurement": "activity at 0.1 µM", "setting": "1.5 h, read-out: cm.bpm.90min", "value": 97.8, "unit": "%"}, {"measurement": "activity at 0.1 µM", "setting": "[3]", "value": 105, "unit": "%"}, {"measurement": "activity at 0.1 µM", "setting": "[4]", "value": 107, "unit": "%"}, {"measurement": "activity at 1 µM", "setting": "[1]", "value": 96.9, "unit": "%"}, {"measurement": "activity at 1 µM", "setting": "[2]", "value": 94.9, "unit": "%"}, {"measurement": "activity at 1 µM", "setting": "1.5 h, read-out: cm.bpm.90min", "value": 99.1, "unit": "%"}, {"measurement": "activity at 1 µM", "setting": "[3]", "value": 97.7, "unit": "%"}, {"measurement": "activity at 1 µM", "setting": "[4]", "value": 102, "unit": "%"}, {"measurement": "activity at 10 µM", "setting": "[1]", "value": 97.3, "unit": "%"}, {"measurement": "activity at 10 µM", "setting": "[2]", "value": 107, "unit": "%"}, {"measurement": "activity at 10 µM", "setting": "1.5 h, read-out: cm.bpm.90min", "value": 96.5, "unit": "%"}, {"measurement": "activity at 10 µM", "setting": "[3]", "value": 96.9, "unit": "%"}, {"measurement": "activity at 10 µM", "setting": "[4]", "value": 101, "unit": "%"}, {"measurement": "activity at 100 µM", "setting": "[1]", "value": 113, "unit": "%"}, {"measurement": "activity at 100 µM", "setting": "[2]", "value": 90.5, "unit": "%"}, {"measurement": "activity at 100 µM", "setting": "1.5 h, read-out: cm.bpm.90min", "value": 99.1, "unit": "%"}, {"measurement": "activity at 100 µM", "setting": "[3]", "value": 95.6, "unit": "%"}, {"measurement": "activity at 100 µM", "setting": "[4]", "value": 92.1, "unit": "%"}, {"measurement": "activity at 0.01 µM", "setting": "[5]", "value": 58.6, "unit": "%"}, {"measurement": "activity at 0.01 µM", "setting": "[6]", "value": 42.1, "unit": "%"}, {"measurement": "activity at 0.01 µM", "setting": "24 h, read-out: cm.bpm.24hrs", "value": 49.6, "unit": "%"}, {"measurement": "activity at 0.01 µM", "setting": "[7]", "value": 54.9, "unit": "%"}, {"measurement": "activity at 0.01 µM", "setting": "[8]", "value": 62.7, "unit": "%"}, {"measurement": "activity at 0.1 µM", "setting": "[5]", "value": 51.9, "unit": "%"}, {"measurement": "activity at 0.1 µM", "setting": "[6]", "value": 31.8, "unit": "%"}, {"measurement": "activity at 0.1 µM", "setting": "24 h, read-out: cm.bpm.24hrs", "value": 47.7, "unit": "%"}, {"measurement": "activity at 0.1 µM", "setting": "[7]", "value": 58, "unit": "%"}, {"measurement": "activity at 0.1 µM", "setting": "[8]", "value": 42.3, "unit": "%"}, {"measurement": "activity at 1 µM", "setting": "[5]", "value": 26.2, "unit": "%"}, {"measurement": "activity at 1 µM", "setting": "[6]", "value": 69.1, "unit": "%"}, {"measurement": "activity at 1 µM", "setting": "24 h, read-out: cm.bpm.24hrs", "value": 46.8, "unit": "%"}, {"measurement": "activity at 1 µM", "setting": "[7]", "value": 51.2, "unit": "%"}, {"measurement": "activity at 1 µM", "setting": "[8]", "value": 53.3, "unit": "%"}, {"measurement": "activity at 10 µM", "setting": "[5]", "value": 79.1, "unit": "%"}, {"measurement": "activity at 10 µM", "setting": "[6]", "value": 146, "unit": "%"}, {"measurement": "activity at 10 µM", "setting": "24 h, read-out: cm.bpm.24hrs", "value": 94.5, "unit": "%"}, {"measurement": "activity at 10 µM", "setting": "[7]", "value": 96.3, "unit": "%"}, {"measurement": "activity at 10 µM", "setting": "[8]", "value": 96.4, "unit": "%"}, {"measurement": "activity at 100 µM", "setting": "[5]", "value": 97.7, "unit": "%"}, {"measurement": "activity at 100 µM", "setting": "[6]", "value": 77.4, "unit": "%"}, {"measurement": "activity at 100 µM", "setting": "24 h, read-out: cm.bpm.24hrs", "value": 85, "unit": "%"}, {"measurement": "activity at 100 µM", "setting": "[7]", "value": 116, "unit": "%"}, {"measurement": "activity at 100 µM", "setting": "[8]", "value": 85.3, "unit": "%"}]}
